Experiment [1] addresses human V1a receptor (Homo sapiens, UniProt P37288). The experiment can be described thus: Cellular in vitro assay for determining vasopressin receptor activity, V1a receptor cell line (photoprotein luminescence). It counts as cell-based. As to conditions: for IC50: CHO cell line transfected with the human V1a receptor, agonist [Arg8]-vasopressin at EC50 concentration, read-out: IC50 hV1a; for ratio IC50 hV2/hV1a: selectivity ratio of the cellular IC50 values. In short, it runs like this: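 CHO K1 cells stably expressing human V1a receptor with aequorin photoprotein, loaded overnight with coelenterazine. Compounds preincubated 10 min at various concentrations, then challenged with [Arg^8]-vasopressin at EC50 concentration. Calcium-driven luminescence read immediately; IC50 values derived.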

The target of experiment [2] is T1, human V2 receptor (Homo sapiens, UniProt P30518).
T1 construct: expressed in transfected cells; host or cells: CHO K1 (ATCC) expressing firefly luciferase under a CRE-responsive promoter
The experiment can be described thus: Cellular in vitro assay for determining vasopressin receptor activity, V2 receptor cell line (CRE-luciferase). Format: cell-based. The conditions noted are these: CHO cell line transfected with the human V2 receptor; agonist [Arg8]-vasopressin at EC50 concentration; read-out: IC50 hV2.

Chain of human V1a receptor (P37288 whole entry): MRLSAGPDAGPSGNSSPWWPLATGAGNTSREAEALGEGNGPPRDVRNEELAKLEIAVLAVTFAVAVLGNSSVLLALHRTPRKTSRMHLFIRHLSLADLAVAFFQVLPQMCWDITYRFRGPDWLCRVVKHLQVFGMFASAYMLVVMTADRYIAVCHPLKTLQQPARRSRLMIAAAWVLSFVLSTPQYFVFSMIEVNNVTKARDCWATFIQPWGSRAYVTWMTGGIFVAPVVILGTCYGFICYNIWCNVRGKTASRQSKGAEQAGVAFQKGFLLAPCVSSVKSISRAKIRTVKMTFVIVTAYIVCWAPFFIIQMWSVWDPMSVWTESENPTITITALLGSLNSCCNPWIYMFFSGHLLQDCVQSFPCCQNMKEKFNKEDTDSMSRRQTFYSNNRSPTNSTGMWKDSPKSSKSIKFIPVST
T1 sequence (P30518 whole entry): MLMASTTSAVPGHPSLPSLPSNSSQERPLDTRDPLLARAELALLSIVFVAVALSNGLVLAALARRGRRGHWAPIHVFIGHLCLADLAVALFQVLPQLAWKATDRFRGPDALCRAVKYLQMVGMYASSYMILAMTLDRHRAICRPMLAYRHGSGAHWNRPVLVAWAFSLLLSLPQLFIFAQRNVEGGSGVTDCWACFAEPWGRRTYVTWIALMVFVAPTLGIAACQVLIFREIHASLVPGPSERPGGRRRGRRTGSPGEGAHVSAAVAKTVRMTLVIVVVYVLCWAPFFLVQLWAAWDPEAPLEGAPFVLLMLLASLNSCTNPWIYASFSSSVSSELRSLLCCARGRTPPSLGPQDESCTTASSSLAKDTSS

What is called IC50 is the concentration needed to halve the response being measured. Take `O=c1n(Cc2nc(N3CCC(O)(C(F)(F)F)C3)n(-c3ccccc3Cl)n2)nc(-c2ccc(Cl)cc2)n1C[C@H](O)C(F)(F)F` (single isomer, unassigned) [Example 14]: the IC50 was 0.96 nM in experiment [1] and 5.85 nM in experiment [2]. The “ratio IC50 hV2/hV1a” value in experiment [1] amounted to 6.1.
The like results for `O=c1n(Cc2nc(N3CCOC(C(F)(F)F)C3)n(-c3ccccc3Cl)n2)nc(-c2ccc(Cl)cc2)n1C[C@H](O)C(F)(F)F` (mixture of isomers) [Example 77, 5-(4-Chlorophenyl)-2-({1-(2-chlorophenyl)-5-[2-(trifluoromethyl)morpholin-4-yl]-1H-1,2,4-triazol-3-yl}methyl)-4-[(2S)-3,3,3-trifluoro-2-hydroxypropyl]-2,4-dihydro-3H-1,2,4-triazol-3-one] were, in that order, 1.5 nM, 39 nM and 26.0.
For `CC1(C)CN(c2nc(Cn3nc(-c4ccc(Cl)cc4)n(C[C@H](O)C(F)(F)F)c3=O)nn2-c2ccccc2Cl)CCN1` [Example 76, 5-(4-Chlorophenyl)-2-{[1-(2-chlorophenyl)-5-(3,3-dimethylpiperazin-1-yl)-1H-1,2,4-triazol-3-yl]methyl}-4-[(2S)-3,3,3-trifluoro-2-hydroxypropyl]-2,4-dihydro-3H-1,2,4-triazol-3-one], in experiment [1], the IC50 came to 0.42 nM and the “ratio IC50 hV2/hV1a” value was 108.4. Moreover, in experiment [2], the IC50 turned out to be 45 nM.
The like results for `CC(C)(CF)CNc1nc(Cn2nc(-c3ccc(Cl)cc3)n(C[C@H](O)C(F)(F)F)c2=O)nn1-c1ccccc1Cl` [Example 3, 5-(4-Chlorophenyl)-2-({1-(2-chlorophenyl)-5-[(3-fluoro-2,2-dimethylpropyl)amino]-1H-1,2,4-triazol-3-yl}methyl)-4-[(2S)-3,3,3-trifluoro-2-hydroxypropyl]-2,4-dihydro-3H-1,2,4-triazol-3-one] were, in that order, 0.62 nM, 3.5 and 2.15 nM.
The like results for `O=C1CCC(Nc2nc(Cn3nc(-c4ccc(Cl)cc4)n(C[C@H](O)C(F)(F)F)c3=O)nn2-c2ccccc2Cl)CN1` (mixture of isomers) [Example 60, 5-{[1-(2-Chlorophenyl)-3-({3-(4-chlorophenyl)-5-oxo-4-[(2S)-3,3,3-trifluoro-2-hydroxypropyl]-4,5-dihydro-1H-1,2,4-triazol-1-yl}methyl)-1H-1,2,4-triazol-5-yl]amino}piperidin-2-one] were, in that order, 0.44 nM, 12.3 and 5.4 nM.
Taken in the same sequence, the figures for `CC(C)(CNc1nc(Cn2nc(-c3ccc(Cl)cc3)n(C[C@H](O)C(F)(F)F)c2=O)nn1-c1ccccc1Cl)NS(C)(=O)=O` [Example 26] were 0.4 nM, 5.6 and 2.2 nM.
On to `O=C1CCC(CNc2nc(Cn3nc(-c4ccc(Cl)cc4)n(C[C@H](O)C(F)(F)F)c3=O)nn2-c2ccccc2Cl)N1` (mixture of isomers) [Example 63, 5-(4-Chlorophenyl)-2-{[1-(2-chlorophenyl)-5-({[5-oxopyrrolidin-2-yl]methyl}amino)-1H-1,2,4-triazol-3-yl]methyl}-4-[(2S)-3,3,3-trifluoro-2-hydroxypropyl]-2,4-dihydro-3H-1,2,4-triazol-3-one], for which the IC50 in experiment [1] was 0.42 nM; in experiment [2], 5.8 nM. Moreover, the “ratio IC50 hV2/hV1a” value in experiment [1] worked out at 14.0.
Taken in the same sequence, the figures for `O=C1CN(c2nc(Cn3nc(-c4ccc(Cl)cc4)n(C[C@H](O)C(F)(F)F)c3=O)nn2CCC(F)(F)F)CCN1` [Example 112, 4-[3-({3-(4-Chlorophenyl)-5-oxo-4-[(2S)-3,3,3-trifluoro-2-hydroxypropyl]-4,5-dihydro-1H-1,2,4-triazol-1-yl}methyl)-1-(3,3,3-trifluoropropyl)-1H-1,2,4-triazol-5-yl]piperazin-2-one] were 114 nM, 810 nM and 7.1.
The like results for `O=c1n(Cc2nc(NCC3(O)CC3)n(-c3ccccc3Cl)n2)nc(-c2ccc(Cl)cc2)n1C[C@H](O)C(F)(F)F` [Example 54, 5-(4-Chlorophenyl)-2-{[1-(2-chlorophenyl)-5-{[(1-hydroxycyclopropyl)methyl]amino}-1H-1,2,4-triazol-3-yl]methyl}-4-[(2S)-3,3,3-trifluoro-2-hydroxypropyl]-2,4-dihydro-3H-1,2,4-triazol-3-one] were, in that order, 0.54 nM, 1.56 nM and 2.9.
On to `CC(C)(N)CNc1nc(Cn2nc(-c3ccc(Cl)cc3)n(C[C@H](O)C(F)(F)F)c2=O)nn1-c1ccccc1F` [Example 91, 2-({5-[(2-Amino-2-methylpropyl)amino]-1-(2-fluorophenyl)-1H-1,2,4-triazol-3-yl}methyl)-5-(4-chlorophenyl)-4-[(2S)-3,3,3-trifluoro-2-hydroxypropyl]-2,4-dihydro-3H-1,2,4-triazol-3-one], for which, in experiment [1], the IC50 amounted to 1.15 nM and the “ratio IC50 hV2/hV1a” value is listed as 91.7. Besides, the IC50 in experiment [2] worked out at 105 nM.
Taken in the same sequence, the figures for `O=c1n(Cc2nc(N3CCCC3)n(-c3ccccc3Cl)n2)nc(-c2ccc(Cl)cc2)n1C[C@H](O)C(F)(F)F` [Example 87, 5-(4-Chlorophenyl)-2-{[1-(2-chlorophenyl)-5-(pyrrolidin-1-yl)-1H-1,2,4-triazol-3-yl]methyl}-4-[(2S)-3,3,3-trifluoro-2-hydroxypropyl]-2,4-dihydro-3H-1,2,4-triazol-3-one] were 2.41 nM, 11.1 and 26.8 nM.
The like results for `O=c1n(Cc2nc(N3CCC3)n(-c3cccc(F)c3)n2)nc(-c2ccc(Cl)cc2)n1C[C@H](O)C(F)(F)F` [Example 121, 2-{[5-(Azetidin-1-yl)-1-(3-fluorophenyl)-1H-1,2,4-triazol-3-yl]methyl}-5-(4-chlorophenyl)-4-[(2S)-3,3,3-trifluoro-2-hydroxypropyl]-2,4-dihydro-3H-1,2,4-triazol-3-one] were, in that order, 6.4 nM, 1.0 and 6.12 nM.
The like results for `CS(=O)(=O)CCNc1nc(Cn2nc(-c3ccc(Cl)cc3)n(C[C@H](O)C(F)(F)F)c2=O)nn1-c1ccccc1Cl` [Example 51, 5-(4-Chlorophenyl)-2-{[1-(2-chlorophenyl)-5-{[2-(methylsulfonyl)ethyl]amino}-1H-1,2,4-triazol-3-yl]methyl}-4-[(2S)-3,3,3-trifluoro-2-hydroxypropyl]-2,4-dihydro-3H-1,2,4-triazol-3-one] were, in that order, 0.71 nM, 2.5 and 1.75 nM.
As for `O=c1n(Cc2nc(N3CCC(F)(F)C3)n(-c3ccccc3Cl)n2)nc(-c2ccc(Cl)cc2)n1C[C@H](O)C(F)(F)F` [Example 37, 5-(4-Chlorophenyl)-2-{[1-(2-chlorophenyl)-5-(3,3-difluoropyrrolidin-1-yl)-1H-1,2,4-triazol-3-yl]methyl}-4-[(2S)-3,3,3-trifluoro-2-hydroxypropyl]-2,4-dihydro-3H-1,2,4-triazol-3-one], in experiment [1], the IC50 was 0.44 nM and the “ratio IC50 hV2/hV1a” value turned out to be 3.1. Moreover, the IC50 in experiment [2] stood at 1.33 nM.
Take `CC1(C)CN(c2nc(Cn3nc(-c4ccc(Cl)cc4)n(C[C@H](O)C(F)(F)F)c3=O)nn2-c2ccccc2Cl)CCO1` [Example 39, 5-(4-Chlorophenyl)-2-{[1-(2-chlorophenyl)-5-(2,2-dimethylmorpholin-4-yl)-1H-1,2,4-triazol-3-yl]methyl}-4-[(2S)-3,3,3-trifluoro-2-hydroxypropyl]-2,4-dihydro-3H-1,2,4-triazol-3-one]: in experiment [1], the IC50 came to 0.58 nM and the “ratio IC50 hV2/hV1a” value is on record as 31.0. Also, the IC50 in experiment [2] was 18 nM.
As for `CC(C)(N)CNc1nc(Cn2nc(-c3ccc(Cl)cc3)n(C[C@H](O)C(F)(F)F)c2=O)nn1-c1ccccc1Cl` [Example 32, 2-({5-[(2-Amino-2-methylpropyl)amino]-1-(2-chlorophenyl)-1H-1,2,4-triazol-3-yl}methyl)-5-(4-chlorophenyl)-4-[(2S)-3,3,3-trifluoro-2-hydroxypropyl]-2,4-dihydro-3H-1,2,4-triazol-3-one], the IC50 is 0.35 nM in experiment [1] and 24.8 nM in experiment [2]. Further, the “ratio IC50 hV2/hV1a” value in experiment [1] stood at 71.2.
Taken in the same sequence, the figures for `NC(=O)[C@@H]1CCCN1c1nc(Cn2nc(-c3ccc(Cl)cc3)n(C[C@H](O)C(F)(F)F)c2=O)nn1-c1ccccc1Cl` [Example 58, 1-[1-(2-Chlorophenyl)-3-({3-(4-chlorophenyl)-5-oxo-4-[(2S)-3,3,3-trifluoro-2-hydroxypropyl]-4,5-dihydro-1H-1,2,4-triazol-1-yl}methyl)-1H-1,2,4-triazol-5-yl]-L-prolinamide] were 1.65 nM, 22 nM and 13.3.
Taken in the same sequence, the figures for `O=C1NCC2(CN(c3nc(Cn4nc(-c5ccc(Cl)cc5)n(C[C@H](O)C(F)(F)F)c4=O)nn3-c3ccccc3Cl)C2)N1` [Example 35, 2-[1-(2-Chlorophenyl)-3-({3-(4-chlorophenyl)-5-oxo-4-[(2S)-3,3,3-trifluoro-2-hydroxypropyl]-4,5-dihydro-1H-1,2,4-triazol-1-yl}methyl)-1H-1,2,4-triazol-5-yl]-2,5,7-triazaspiro[3.4]octan-6-one] were 0.48 nM, 6.05 nM and 12.6.
As for `O=C1CCC(Nc2nc(Cn3nc(-c4ccc(Cl)cc4)n(C[C@H](O)C(F)(F)F)c3=O)nn2-c2ccccc2Cl)CN1` (single isomer, unassigned) [Example 61], in experiment [1], the IC50 turned out to be 1.35 nM and the “ratio IC50 hV2/hV1a” value is on record as 7.4. Also, the IC50 in experiment [2] came to 10.1 nM.

These data come from patent US11331314B2, “Amine substituted triazole derivatives and uses thereof” (Bayer Pharma Aktiengesellschaft, priority 2017, dated 2022).
